According to ChEMBL document CHEMBL3885861, “Open TG-GATES”:

Species: Rattus norvegicus
Assay: Open TG-GATES - Regimen: Single
Assay type: toxicity, organism-based, Sprague-Dawley
Parameters: regimen Single, gender Male, age 6 weeks
Details: in vivo, po, route gavage; for APTT / Bas / Eos / Fbg / Hb / Ht / Lym / MCV / Mono / PT / Plat / RBC / Ret / WBC / MCHC / Neu: tissue Blood; for ALP / ALT / AST / BUN / CRE / Ca / Cl / DBIL / GLC / IP / K / LDH / Na / PL / RALB / TBIL / TC / TG / TP / gamma-GTP: tissue Plasma
[1] = 0 mg/kg, 3 h, dose level Control
[2] = 0 mg/kg, 6 h, dose level Control
[3] = 0 mg/kg, 9 h, dose level Control
[4] = 0 mg/kg, 24 h, dose level Control

## O=C(O)c1cccnc1 [NIACIN]
[1]
  APTT: 24 s
  Bas: 0%
  Eos: 0.8%
  Fbg: 311.4 mg/dL
  Hb: 13.5 g/dL
  Ht: 40.1%
  Lym: 81.2%
  MCV: 63.7 fL
  Mono: 2.2%
  PT: 16.4 s
  Plat: 118.4 x10_4/uL
  RBC: 630 x10_4/ul
  Ret: 7.9%
  WBC: 80.3 x10_2/uL
  ALP: 1666.4 IU/L
  ALT: 44.8 IU/L
  AST: 68.6 IU/L
  BUN: 12.8 mg/dL
  CRE: 0.1 mg/dL
  Ca: 11 mg/dL
  Cl: 102.6 meq/L
  DBIL: 0 mg/dL
  GLC: 182.4 mg/dL
  IP: 9.1 mg/dL
  K: 4.2 meq/L
  LDH: 165 IU/L
  Na: 140.8 meq/L
  PL: 138.6 mg/dL
  RALB: 2.9 g/dL
  TBIL: 0.002 mg/dL
  TC: 80.8 mg/dL
  TG: 48.2 mg/dL
  TP: 5.7 g/dL
  gamma-GTP: 1.4 IU/L
[2]
  Bas: 0%
  Eos: 0.8%
  Fbg: 304 mg/dL
  Hb: 13.6 g/dL
  Ht: 40.5%
  Lym: 76.2%
  MCHC: 33.7%
  MCV: 62.9 fL
  Mono: 2.8%
  PT: 16.5 s
  Plat: 116.7 x10_4/uL
  RBC: 643.6 x10_4/ul
  Ret: 7.8%
  WBC: 105.2 x10_2/uL
  ALP: 1639.8 IU/L
  ALT: 37.8 IU/L
  AST: 72.2 IU/L
  BUN: 12.6 mg/dL
  CRE: 0.1 mg/dL
  Ca: 10.8 mg/dL
  Cl: 103.6 meq/L
  DBIL: 0 mg/dL
  GLC: 196.8 mg/dL
  IP: 9.5 mg/dL
  K: 4.3 meq/L
  LDH: 211.2 IU/L
  Na: 140.2 meq/L
  PL: 141 mg/dL
  RALB: 3 g/dL
  TBIL: 0.008 mg/dL
  TC: 79.2 mg/dL
  TG: 68.4 mg/dL
  TP: 5.5 g/dL
  gamma-GTP: 1 IU/L
[3]
  Bas: 0%
  Eos: 0.8%
  Fbg: 312.8 mg/dL
  Hb: 13 g/dL
  Ht: 39.1%
  Lym: 81.4%
  MCHC: 33.3%
  MCV: 62.3 fL
  Mono: 2.6%
  Neu: 13.8%
  Plat: 119.2 x10_4/uL
  RBC: 627.8 x10_4/ul
  Ret: 8%
  WBC: 95.1 x10_2/uL
  ALP: 1434.4 IU/L
  ALT: 38.4 IU/L
  AST: 70.6 IU/L
  BUN: 11.8 mg/dL
  CRE: 0.2 mg/dL
  Ca: 10.7 mg/dL
  Cl: 104 meq/L
  DBIL: 0.004 mg/dL
  GLC: 185.4 mg/dL
  IP: 9.4 mg/dL
  K: 4.2 meq/L
  LDH: 177.2 IU/L
  Na: 140.4 meq/L
  PL: 129 mg/dL
  RALB: 3 g/dL
  TBIL: 0.01 mg/dL
  TC: 74.4 mg/dL
  TG: 52.2 mg/dL
  TP: 5.5 g/dL
  gamma-GTP: 1.2 IU/L
[4]
  Bas: 0%
  Eos: 1%
  Fbg: 327.2 mg/dL
  Hb: 13.2 g/dL
  Ht: 39.3%
  Lym: 81.2%
  MCHC: 33.6%
  MCV: 63.3 fL
  Mono: 2.6%
  Neu: 14%
  PT: 16.1 s
  Plat: 120.2 x10_4/uL
  RBC: 621.2 x10_4/ul
  Ret: 7.5%
  WBC: 115.4 x10_2/uL
  ALP: 1844 IU/L
  ALT: 45 IU/L
  AST: 70 IU/L
  BUN: 15.6 mg/dL
  CRE: 0.2 mg/dL
  Ca: 10.6 mg/dL
  Cl: 104.2 meq/L
  DBIL: 0 mg/dL
  GLC: 197.2 mg/dL
  IP: 8.2 mg/dL
  K: 4.3 meq/L
  LDH: 200 IU/L
  Na: 140.4 meq/L
  PL: 147.6 mg/dL
  RALB: 3 g/dL
  TBIL: 0.002 mg/dL
  TC: 74.6 mg/dL
  TG: 104 mg/dL
  TP: 5.5 g/dL
  gamma-GTP: 1.4 IU/L
100 mg/kg, 3 h, dose level Low
  APTT: 22.6 s
